18 compounds from patent US20140057895A1, “INDAZOLE- AND PYRROLOPYRIDINE-DERIVATIVE AND PHARMACEUTICAL USE THEREOF” (priority 2011, published 2014) can be followed below.

One assay has as its target T1, 5-HT4 receptor (Cavia porcellus, UniProt O70528).
T1 construct: striatum was isolated which was cryopreserved at −80° C. until use; from tissue; host or cells: guinea pig (Slc-Hartley) striatum membranes
The assay can be described thus: Test Example 3: Guinea pig 5-HT4 receptor binding assay, [3H]-GR113808, striatum membranes (Table 98). In a few lines:
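Striatal membranes from Slc-Hartley guinea pigs were incubated with 0.1 nM [3H]-GR113808 and test compounds in 50 mM Hepes pH 7.4 at 37° C for 30 min; nonspecific binding was defined with 30 μM serotonin. Bound radioactivity was collected by filtration, and IC50 was derived from inhibition of specific binding.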

The target of another assay is T2, human 5-HT4b receptor (Homo sapiens, UniProt Q13639).
T2 construct: expressed in transfected cells; host or cells: CHO cells (G418 selection)
The assay can be described thus: Test Example 4: Serotonin 4 (5-HT4) receptor agonist activity assay, cAMP HTRF in CHO cells (Table 100). Type of assay: cell-based. Conditions: mean value; for Emax: CHO, 0.25 h, intrinsic activity, maximal activity of 5-HT defined as 100%, read-out: IA (%); for pEC50: concentration showing 50% of IA. On the procedure:
The cAMP measurement test used herein was carried out by using CISBIO HTRF (trademark) cAMP Hirange kit according to the manufacturer's instructions attached therewith.
CHO cells expressing human 5-HT4b receptor were incubated in Medium 1 [DMEM/1% NEAA, 1% penicillin/streptomycin (P/S), 0.2 mg/mL GENETICIN (G418), 10% FBS] at 37° C. under 5% CO2 condition. Then, the cells were put into Medium 2 (DMEM/10000 cut FBS, G-418, P/S, NEAA) for 1 to 2 hours, and collected by treating with trypsin containing EDTA. The collected cells were suspended in Assay Buffer 1 [100 mM Hanks/HEPES buffer (pH 7.4)], the suspended cells were mixed with the testing compound on 384-well plates, and the cells were incubated at 31° C. for 15 minutes. To the cells were added cAMP-cryptate solution and cAMP-d2 solution, and they were incubated at room temperature for 1 hour. Then, time-resolved fluorescence was measured by En Vision (excitation wavelength: 330 nm, fluorescence wavelength: 620/665 nm).
An intrinsic activity of the compound [IA (%)] and a concentration showing 50% of IA [EC50 (nM)] were calculated from the obtained results. In particular, the intrinsic activity (IA) was calculated on the basis of the maximal activity of 5-HT (measured from 10^−11 M to 10^−7 M) defined as 100%.
In the following table, the compounds used in the test are shown in numbers which correspond to the Example numbers above where the preparations of the compounds are described.
In general terms: TR-FRET usually uses a lanthanide donor and a delayed reading to cut background.

Where [1] appears, read: Guinea pig 5-HT4 receptor binding assay, [3H]-GR113808, striatum membranes, mean value of each group, read-out: IC50.

pEC50, pIC50: −log10 of the molar value. Structures can show the parent of a compound that is named as a salt. Where two headings read alike, the source gives them in different places. Some results are limits rather than exact numbers.

T2 sequence (Q13639 whole entry): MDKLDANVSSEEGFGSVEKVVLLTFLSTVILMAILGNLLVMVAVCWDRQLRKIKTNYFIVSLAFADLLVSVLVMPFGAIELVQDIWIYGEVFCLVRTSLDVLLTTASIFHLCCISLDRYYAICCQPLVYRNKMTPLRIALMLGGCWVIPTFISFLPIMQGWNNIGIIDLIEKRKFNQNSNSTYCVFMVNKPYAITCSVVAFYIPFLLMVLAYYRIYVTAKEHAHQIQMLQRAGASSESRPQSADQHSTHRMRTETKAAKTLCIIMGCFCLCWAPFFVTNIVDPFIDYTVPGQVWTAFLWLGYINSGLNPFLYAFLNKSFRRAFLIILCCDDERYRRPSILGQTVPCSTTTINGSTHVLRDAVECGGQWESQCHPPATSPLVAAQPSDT
T1 sequence (O70528 whole entry): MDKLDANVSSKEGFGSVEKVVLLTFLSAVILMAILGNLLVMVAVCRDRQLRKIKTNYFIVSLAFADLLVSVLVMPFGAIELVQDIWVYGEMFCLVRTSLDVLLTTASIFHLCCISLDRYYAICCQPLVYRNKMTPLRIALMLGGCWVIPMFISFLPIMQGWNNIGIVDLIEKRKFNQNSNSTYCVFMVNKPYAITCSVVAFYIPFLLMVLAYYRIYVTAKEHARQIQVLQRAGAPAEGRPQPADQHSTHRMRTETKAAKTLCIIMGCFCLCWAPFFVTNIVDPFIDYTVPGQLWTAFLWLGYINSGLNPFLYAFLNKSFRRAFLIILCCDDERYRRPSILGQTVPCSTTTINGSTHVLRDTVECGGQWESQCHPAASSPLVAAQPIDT

As usually defined, the pIC50 is the IC50 on a negative log10 scale, so that one unit is a factor of ten. As usually defined, the pEC50 is the negative decadic logarithm of the EC50, by convention in mol/L. Read a low pEC50 as a high EC50. Consider `CCc1nn(-c2noc(C3CCN(C[C@@H]4CCN(C(=O)COC)C4)CC3)n2)c2c(F)cccc12` [Example 202, 1-[(3S)-3-({4-[3-(3-ethyl-7-fluoro-1H-indazol-1-yl)-1,2,4-oxadiazol-5-yl]piperidin-1-yl}methyl)pyrrolidin-1-yl]-2-methoxyethanone], for which the pIC50 at 5-HT4 receptor (setting [1]) was more than 7.70. Further, at human 5-HT4b receptor, the Emax was 39% and the pEC50 was 8.24.

As for `CCc1nn(-c2noc(C3CCN(C4CCN(C(=O)CO)CC4)CC3)n2)c2c(F)cccc12` [compound 244, hydrochloride], the pIC50 on 5-HT4 receptor (setting [1]) was more than 7.70. Besides, at human 5-HT4b receptor, the Emax is 63.5% and the negative logarithm of the EC50 (pEC50) was 8.41.

For the compound `CC(=O)N1CCC(N2CC[C@@H](Cc3nc(-n4nc(C(C)C)c5cccc(F)c54)no3)C2)CC1` [Example 507, 1-{4-[(3S)-3-({3-[7-fluoro-3-(propan-2-yl)-1H-indazol-1-yl]-1,2,4-oxadiazol-5-yl}methyl)pyrrolidin-1-yl]piperidin-1-yl}ethanone], on 5-HT4 receptor (setting [1]), the pIC50 was more than 7.70. Also, at human 5-HT4b receptor, the Emax stood at 84% and the pEC50 is 8.41.

For `CCc1nn(-c2noc(C3CCN(C4CCN(C(=O)COC)CC4)CC3)n2)c2c(F)c(F)ccc12` [Example 461, 1-{4-[3-(3-ethyl-6,7-difluoro-1H-indazol-1-yl)-1,2,4-oxadiazol-5-yl]-1,4′-bipiperidin-1′-yl}-2-methoxyethanone trifluoroacetate], the negative-log IC50 (pIC50) on 5-HT4 receptor (setting [1]) was more than 7.70. Moreover, at human 5-HT4b receptor, the Emax was 65.5% and the pEC50 was 8.36.

Consider `CC(C)c1nn(-c2noc(C3CCN(C4CCN(C(=O)CO)CC4)CC3)n2)c2c(F)c(F)ccc12` [Example 520, 1-(4-{3-[6,7-difluoro-3-(propan-2-yl)-1H-indazol-1-yl]-1,2,4-oxadiazol-5-yl}-1,4′-bipiperidin-1′-yl)-2-hydroxyethanone], for which the negative-log IC50 (pIC50) at 5-HT4 receptor (setting [1]) is more than 7.70. In addition, on human 5-HT4b receptor, the Emax was 82.9% and the negative logarithm of the EC50 (pEC50) is 7.75.

Turning to `CCc1nn(-c2noc(C3CCN(CC4CCN(C(=O)CO)CC4)CC3)n2)c2c(F)cccc12` [compound 246, 1-[4-({4-[3-(3-ethyl-7-fluoro-1H-indazol-1-yl)-1,2,4-oxadiazol-5-yl]piperidin-1-yl}methyl)piperidin-1-yl]-2-hydroxyethanone], the pIC50 on 5-HT4 receptor (setting [1]) is more than 7.70. On human 5-HT4b receptor, the Emax is 56.6% and the negative logarithm of the EC50 (pEC50) was 7.68.

As to `CCc1nn(-c2noc(C3CCN(CC4CCOCC4)CC3)n2)c2cc(C)ccc12` [Example 435, 3-ethyl-6-methyl-1-{5-[1-(tetrahydro-2H-pyran-4-ylmethyl)piperidin-4-yl]-1,2,4-oxadiazol-3-yl}-1H-indazole trifluoroacetate], the pIC50 on 5-HT4 receptor (setting [1]) is 7.35. For the same compound, on human 5-HT4b receptor, the Emax is 1.6% and the negative logarithm of the EC50 (pEC50) is 7.92.

`CC(=O)N1CCC(N2CCC(c3nc(-n4nc(C(C)C)c5ccc(F)c(F)c54)no3)CC2)CC1` [Example 464, 1-(4-{3-[6,7-difluoro-3-(propan-2-yl)-1H-indazol-1-yl]-1,2,4-oxadiazol-5-yl}-1,4′-bipiperidin-1′-yl}ethanone trifluoroacetate]: the negative logarithm of the IC50 (pIC50) on 5-HT4 receptor (setting [1]) was more than 7.70. Also, at human 5-HT4b receptor, the Emax worked out at 70% and the negative logarithm of the EC50 (pEC50) was 7.51.

Consider `CC(C)c1nn(-c2noc(C3CCN(C(C)(C)CO)CC3)n2)c2c(F)cccc12` [Example 402, 2-(4-{3-[7-fluoro-3-(propan-2-yl)-1-indazol-1-yl]-1,2,4-oxadiazol-5-yl}piperidin-1-yl)-2-methylpropan-1-ol], for which the pIC50 at 5-HT4 receptor (setting [1]) was more than 7.70. On human 5-HT4b receptor, the Emax is 106% and the pEC50 is 8.74.

In the case of `CC(C)c1nn(-c2noc(C3CCN(C4CCC4)C3)n2)c2c(F)cccc12` (stereo not drawn) [Example 455, 1-[5-(1-cyclobutylpyrrolidin-3-yl)-1,2,4-oxadiazol-3-yl]-7-fluoro-3-(propan-2-yl)-1H-indazole], at 5-HT4 receptor (setting [1]), the negative-log IC50 (pIC50) is more than 7.70. At human 5-HT4b receptor, the Emax was 99% and the negative-log EC50 (pEC50) was 7.55.

On to `CC(C)c1nn(-c2noc(C3CCN(C4CCC4)CC3)n2)c2c(F)c(F)ccc12` [Example 451, 1-[5-(1-cyclobutylpiperidin-4-yl)-1,2,4-oxadiazol-3-yl]-6,7-difluoro-3-(propan-2-yl)-1H-indazole-trifluoroacetate], for which, on 5-HT4 receptor (setting [1]), the pIC50 was more than 7.70. Moreover, on human 5-HT4b receptor, the Emax was 83.1% and the pEC50 is 7.86.

Consider `CC(=O)N1CC(CN2CCC(c3nc(-n4nc(C(C)C)c5ccc(F)c(F)c54)no3)CC2)C1` [Example 472, 1-{3-[(4-{3-[6,7-difluoro-3-(propan-2-yl)-1H-indazol-1-yl]-1,2,4-oxadiazol-5-yl}piperidin-1-yl)methyl]azetidin-1-yl}ethanone trifluoroacetate], for which the pIC50 on 5-HT4 receptor (setting [1]) was 7.53. In addition, on human 5-HT4b receptor, the Emax came out at 54.3% and the pEC50 was 7.33.

For the compound `CCc1nn(-c2noc(C3CCN(CC4CN(C(=O)OC)C4)CC3)n2)c2c(F)c(F)ccc12` [Example 470, methyl 3-({4-[3-(3-ethyl-6,7-difluoro-1H-indazol-1-yl)-1,2,4-oxadiazol-5-yl]piperidin-1-yl}methyl)azetidine-1-carboxylate trifluoroacetate], on 5-HT4 receptor (setting [1]), the pIC50 is 7.52. Besides, on human 5-HT4b receptor, the Emax was 70.4% and the pEC50 was 7.87.

`CCc1nn(-c2noc(C3CCN(C[C@H]4CCN(C(C)=O)C4)CC3)n2)c2c(F)cccc12` [Example 209, 1-[(3R)-3-({4-[3-(3-ethyl-7-fluoro-1H-indazol-1-yl)-1,2,4-oxadiazol-5-yl]piperidin-1-yl}methyl)pyrrolidin-1-yl]ethanone hydrochloride]: the pIC50 on 5-HT4 receptor (setting [1]) is more than 7.70. For the same compound, at human 5-HT4b receptor, the Emax is 79.1% and the pEC50 was 8.43.

Consider `CC(C)c1nn(-c2noc(C3CCN(C[C@H]4CCCN4C(=O)CO)CC3)n2)c2c(F)cccc12` [Example 529, 1-{(2R)-2-[(4-{3-[7-fluoro-3-(propan-2-yl)-1H-indazol-1-yl]-1,2,4-oxadiazol-5-yl}piperidin-1-yl)methyl]pyrrolidin-1-yl}-2-hydroxyethanone hydrochloride], for which the pIC50 at 5-HT4 receptor (setting [1]) is more than 7.70. At human 5-HT4b receptor, the Emax is 95.5% and the negative logarithm of the EC50 (pEC50) was 8.92.

`CC(=O)N1CCC(N2CCC(O)(c3nc(-n4nc(C(C)C)c5cccc(F)c54)no3)CC2)CC1` [Example 457, 1-(4-{3-[7-fluoro-3-(propan-2-yl)-1H-indazol-1-yl]-1,2,4-oxadiazol-5-yl}-4-hydroxy-1,4′-bipiperidin-1′-yl)ethanone] gave a pIC50 on 5-HT4 receptor of 7.07. At human 5-HT4b receptor, the Emax was found to be 72.2% and the pEC50 is 7.90.

Take `CC(=O)N1CCC(CN2CCC(c3nc(-n4nc(C(C)C)c5ccccc54)no3)CC2)CC1` [Example 475, 1-{4-[(4-{3-[3-(propan-2-yl)-1H-indazol-1-yl]-1,2,4-oxadiazol-5-yl}piperidin-1-yl)methyl]piperidin-1-yl}ethanone trifluoroacetate]: on 5-HT4 receptor (setting [1]), the negative logarithm of the IC50 (pIC50) is 7.17. In addition, at human 5-HT4b receptor, the Emax amounted to 61% and the negative logarithm of the EC50 (pEC50) was 7.87.

On 5-HT4 receptor, `CC(C)c1nn(-c2noc(C3(O)CCN(C4CCN(C(=O)CO)CC4)CC3)n2)c2c(F)cccc12` [Example 551, 1-(4-{3-[7-fluoro-3-(propan-2-yl)-1H-indazol-1-yl]-1,2,4-oxadiazol-5-yl}-4-hydroxy-1,4′-bipiperidin-1′-yl)-2-hydroxyethanone] had a pIC50 of 7.09. Further, on human 5-HT4b receptor, the Emax amounted to 70.4% and the negative-log EC50 (pEC50) was 7.73.
